Data set [1] has as its system Spodoptera litura. The settings on record: for synergistic effects: chemical pesticide combined with the virus, compared with the pesticide alone; for LC50: 3 days after the treatment, NPV 5.5 × 10^5 PIB/ml where combined.
Data set [2] relates to third instar larvae of Spodoptera litura. The data set is described as follows: Lethal time (LT50/LT90) of third instar larvae treated with nucleopolyhedrovirus and low concentration pesticides. The data set is classed as in vivo. Conditions: 1.47 ppm of Chlorantraniliprole alone. An excerpt: When treated with 5.5×10^5 PIB/ml of the Spodoptera litura nucleopolyhedrovirus alone, the 50% lethal time (LT50) of the third instar larvae was 9.2 days. But when treated with the formulation of the present invention, 5.5×10^5 PIB/ml of the virus and 1.47 ppm of Chlorantraniliprole, the LT50 was shortened to 1-2 days and the 90% of lethal time (LT90) was achieved by 3-4 days (see Table 1).

Data set [3] has the same test system. The experiment in a line: Indoor experiments: death rates with seven concentrations of Chlorantraniliprole mixed with nucleopolyhedrovirus (FIG. 2). It is filed as in vivo. Conditions: 40 ppm of Chlorantraniliprole. On the procedure: In the indoor experiments, the third instar larvae of Spodoptera litura were treated with the mixtures of seven different concentrations of Chlorantraniliprole with the nucleopolyhedrovirus. […] The synergistic effect of the mixture was more significant especially in the comparison of the low death rate caused by the low concentration of Chlorantraniliprole (see FIG. 2).

Data set [4] has the same test system. The data set is described as follows: Cumulative death rates of third instar larvae (FIG. 1). It is filed as in vivo. The settings on record: Chlorantraniliprole 7.36 ppm alone. An excerpt: The cumulative death rates of the third instar larvae of Spodoptera litura to 10% of the registered concentration of Chlorantraniliprole (7.36 ppm), nucleopolyhedrovirus (5.5×10^5 PIB/ml) and the mixture of 10% of the registered concentration of Chlorantraniliprole+nucleopolyhedrovirus were shown in FIG. 1. It cost 11 days for the treatment of nucleopolyhedrovirus alone to achieve 100% of death rate. For the treatment of Chlorantraniliprole alone, only 80% of death rate was achieved.

The test system of data set [5] is Spodoptera litura. The experiment in a line: Control rate of Spodoptera litura in Brassica oleracea crops in the field. It is filed as in vivo. Conditions: for Control rate One week after the first treatment / Control rate One week after the second treatment / Control rate One week after the third treatment / Control rate Two weeks after the third treatment / Control rate mean: field, NPV 10^6 PIB/mL, Chlorfluazuron 5 ppm, Chlorantraniliprole 1.47 ppm; for Control rate One week after the first treatment / Control rate One week after the second treatment / Control rate One week after the third treatment / Control rate Two weeks after the third treatment: Brassica oleracea; for Control rate mean: mean of the four assessments. From the text:
Although mixing of proper pesticides can achieve synergistic effects, the mixture with current concentration for field application equals to twice the amount of pesticides used (If the viruses or pesticides are originally used individually, the mixture would be the same concentration used together). […] The content of Chlorantraniliprole used in the present invention (2% of the current registered concentration, 1.47 ppm) was 50 folds lower than the existing application technique. When mixing with Spodoptera litura nucleopolyhedrovirus, the LT50 of the third instar larvae was less than 2 days and the LT90 was only 3-4 days. […] However, when mixing the low concentration of Chlorantraniliprole with the virus, only 2% of the current registered amount of Chlorantraniliprole was mixed with the virus, 85-95% of control rate was achieved (Table 3).
The concentration of the Spodoptera litura nucleopolyhedrovirus: 10^6 PIB/mL; Chlorfluazuron was 5 ppm (20% of the current registered concentration); Chlorantraniliprole was 1.47 ppm (2% of the current registered concentration)

Usually LC50 stands for the concentration lethal to half of the exposed cells or organisms.

SMILES strings stand for the structures.

`N#Cc1ccc(CC(=NNC(=O)Nc2ccc(OC(F)(F)F)cc2)c2cccc(C(F)(F)F)c2)cc1` (mixture of isomers) [Metaflumizone]: the synergistic effects result in the data set on Spodoptera litura [1] is recorded as “interfered effects”.

With `CNC(=O)c1cc(Cl)cc(C)c1NC(=O)c1cc(Br)nn1-c1ncccc1Cl` [Chlorantraniliprole], the pest control effect result in data set [2] is on record as “no pest control effect”. In data set [3], the death rate is 100%. Also, in the data set on Spodoptera litura [1], the LC50 is on record as 1.36 ppm and the synergistic effects worked out at 4 folds. The death rate achieved in data set [4] is given as 80%. Besides, in the data set with Spodoptera litura [5], the “Control rate One week after the first treatment” value is given as 31.6%, the “Control rate One week after the second treatment” value came out at 22.9%, the “Control rate One week after the third treatment” value is on record as 77.3% and the “Control rate Two weeks after the third treatment” value is reported as −5%. Further, the Control rate mean with Spodoptera litura [5] was 32%. Moreover, in the data set with Spodoptera litura [5] (low concentration (1.47 ppm) administered alone), the “pest control effects in the field” value is on record as “no pest control effects”.

As for `CCOCn1c(-c2ccc(Cl)cc2)c(C#N)c(Br)c1C(F)(F)F` [Chlorfenapyr], the LC50 in the data set with Spodoptera litura [1] is listed as 11.8 ppm.

As for `O=C(NC(=O)c1c(F)cccc1F)Nc1cc(Cl)c(Oc2ncc(C(F)(F)F)cc2Cl)c(Cl)c1` [Chlorfluazuron], the LC50 in the data set on Spodoptera litura [1] was 7.48 ppm. Further, in the data set with Spodoptera litura [5], the “Control rate One week after the first treatment” value was −3.2%, the “Control rate One week after the second treatment” value was −50.3%, the “Control rate One week after the third treatment” value is reported as 38.6% and the “Control rate Two weeks after the third treatment” value worked out at 19.2%. Also, the Control rate mean in the data set on Spodoptera litura [5] is 1.0%.
